Data published in US7576204B2, “Heterocyclic macrolide pharmaceutical agent, a method of producing the same and use of the same” (priority 2002, dated 2009).

Experiments:
[1] = test system: P388 mouse leukemia cells; settings: in vivo experiment using P388 mouse leukemia cells; cited from earlier work
[2] = test system: HL-60 human leukemia cells; settings: RPM-1640 culture medium; cited from earlier work
[3] = Stability in an aqueous solution
[4] = test system: P388 mouse leukemia cells; settings: RPM-1640 culture medium; cited from earlier work
[5] = test system: L-1210 mouse leukemia cells; settings: RPM-1640 culture medium; cited from earlier work
[6] = test system: WiDr human colon cancer cells; experiment: Action of inhibiting proliferation of WiDr human colon cancer cells (MTT); assay type: cell-based; settings: 72 h, three days culture, read-out: WiDr human colon cancer cell proliferation inhibitory activity (IC50: nM)
Method: 2×10^3 cells/well of WiDr human colon cancer cells cultured in a Dulbecco's modified Eagle's medium containing 10% fetal bovine serum, penicillin (100 units/mL) and streptomycin (100 μg/mL) (DMEM, manufactured by Sigma Co.) were plated in a 96-well plate. The cells were cultured in a CO2 incubator overnight, and 20 μL of the above-described culture solution containing the test compound at threefold serial dilutions was added for culturing the cells. After three days, 50 μL of a 3.3 mg/mL MTT solution was added, and the cells were further cultured for one hour. Then, formazan generated by reduction by living cells was extracted with 100 μL of DMSO to measure the absorbance (A540/A660), which was used as an index of the number of living cells.
The concentration for inhibiting 50% of proliferation of WiDr human colon cancer cells (IC50 value) of the compound of the formula (I) was determined.

VEGF promoter = experiment: VEGF transcription inhibitory activity, VEGF-PLAP reporter in U251/1-8 cells under hypoxic conditions; assay type: cell-based; settings: Homo sapiens, U-251, hypoxic (2% O2) incubator 18 hours, PLAP activity in culture supernatant
From the text: In order to prepare a reporter system in which transcription from a VEGF promoter is reflected, a VEGF promoter sequence was cloned and inserted into a placental alkaline phosphatase (PLAP) vector to construct a reporter vector.
In order to obtain a promoter region of human VEGF, a VEGF genome was cloned from a phage library. Based on VEGF cDNA (GenBank accession number: X62568), a PCR primer with the sequence described as SEQ ID NO: 1 or SEQ ID NO: 2 was designed and used for conducting PCR, thereby obtaining a fragment of about 340 bp. A human genomic phage library (human genomic library, Clontech) was screened using this fragment as a probe to obtain pUC18-VEGFA containing a VEGF 5′-flanking region of about 5.4 kb. This pUC18-VEGFA was cut with Kpn I/Nhe I to obtain a VEGF promoter region of about 2.3 kb, and the region was inserted into the multicloning site Kpn I/Nhe I of the placental alkaline phosphatase (PLAP) reporter vector (Goto et al., Mol. Pharmacol., 49, 860-873, 1996) to construct a VEGF-PLAP vector.
The above-described VEGF-PLAP vector was introduced into U251 cells cultured in a Dulbecco's modified Eagle's medium containing 10% fetal bovine serum (DMEM, manufactured by Sigma Co.), and cultured in the presence of 1 mg/ml G418 (Merck & Co., Inc.) to establish a G418-resistant stable clone (U251/1-8 cells).
As in a report by Minchenko et al. (Cell. Mol. Biol. Res., 40, 35-39, 1994), U251/1-8 cells were confirmed to be a reporter system which secretes PLAP into a culture medium under hypoxic conditions (2% O2 incubator), and in which transcription from a VEGF promoter is reflected. […]
The cells were cultured in a CO2 incubator (5% CO2) at 37° C. overnight, and 20 μl of the above-described culture solution containing the test compound at threefold serial dilutions was added. […] After the reaction for one hour, chemiluminescence was detected using a microplate reader (PerkinElmer) to measure the PLAP activity as the alkaline phosphatase activity. […] The IC50 values of compounds of the formula (I) were determined.

Row | SMILES | Antitumor activity in vivo [1] | Cytotoxic activity in vitro [2] | Stability in an aqueous solution [3] | Cytotoxic activity in vitro [4] | Cytotoxic activity in vitro [5] | IC50 [6] [nM] | IC50 (VEGF promoter) [nM]
1 | CCC(OC)C(C)C1OC1C(O)C(C)/C=C/C=C(\C)C1OC(=O)CC(O)CCC(C)(O)C(OC(C)=O)/C=C/C1C (centres unmarked) [FD-895] | did not show antitumor activity | has cytotoxic activity in vitro | instable in an aqueous solution | has cytotoxic activity in vitro | has cytotoxic activity in vitro | – | –
2 | CCC(OC(=O)N(C)C)C(C)C1OC1CC(C)/C=C/C=C(\C)C1OC(=O)CC(O)CCC(C)(O)C(OC(=O)N2CCN(C)CC2)/C=C/C1C (centres unmarked) [Example 2, (8E,12E,14E)-21-(N,N-dimethylcarbamoyloxy)-3,6-dihydroxy-6,10,12,16,20-pentamethyl-7-((4-methylpiperazin-1-yl)carbonyl)oxy-18,19-epoxytricosa-8,12,14-trien-11-olide] | – | – | – | – | – | 2.4 | 4.2
3 | CCC(OC(=O)c1ccccc1)C(C)C1OC1CC(C)/C=C/C=C(\C)C1OC(=O)CC(O)CCC(C)(O)C(OC(=O)N2CCN(C)CC2)/C=C/C1C (centres unmarked) [Example 1, (8E,12E,14E)-21-benzoyloxy-3,6-dihydroxy-6,10,12,16,20-pentamethyl-7-((4-methylpiperazin-1-yl)carbonyl)oxy-18,19-epoxytricosa-8,12,14-trien-11-olide] | – | – | – | – | – | 5.9 | 20.7
4 | CCC(OC(=O)Nc1ccccc1)C(C)C1OC1CC(C)/C=C/C=C(\C)C1OC(=O)CC(O)CCC(C)(O)C(OC(=O)N2CCN(C)CC2)/C=C/C1C (centres unmarked) [Example 3, (8E,12E,14E)-3,6-dihydroxy-6,10,12,16,20-pentamethyl-7-((4-methylpiperazin-1-yl)carbonyl)oxy-21-(N-phenylcarbamoyloxy)-18,19-epoxytricosa-8,12,14-trien-11-olide] | – | – | – | – | – | 4.8 | 11.8
